Source: article PMC4685510, “A Cell Biologist’s Field Guide to Aurora Kinase Inhibitors” (Frontiers in Oncology, 2015)

Legend:
Assay in all cases: biochemical
Assay type in all cases: biochemical
[1] = biological target: 363 human kinases (including Aurora A/B/C) (Homo sapiens, UniProt Q16512); conditions: PKN1/PRK1; for remaining activity at 0.1 µM: 100 nM; for remaining activity at 0.1 µM / remaining activity at 0.5 µM: read-out: % Enzyme Activity (relative to DMSO controls)
Text: (§1) However, the Aurora A/B selectivity ratios derived from our in vitro and in vivo data can be compared to prioritize inhibitors.

[2] = biological target: T1, 363 human kinases (including Aurora A/B/C) (Homo sapiens, UniProt O14920); conditions: IKKb/IKBKB; for remaining activity at 0.1 µM: 100 nM; for remaining activity at 0.1 µM / remaining activity at 0.5 µM: read-out: % Enzyme Activity (relative to DMSO controls)
T1 sequence (O14920 1-756): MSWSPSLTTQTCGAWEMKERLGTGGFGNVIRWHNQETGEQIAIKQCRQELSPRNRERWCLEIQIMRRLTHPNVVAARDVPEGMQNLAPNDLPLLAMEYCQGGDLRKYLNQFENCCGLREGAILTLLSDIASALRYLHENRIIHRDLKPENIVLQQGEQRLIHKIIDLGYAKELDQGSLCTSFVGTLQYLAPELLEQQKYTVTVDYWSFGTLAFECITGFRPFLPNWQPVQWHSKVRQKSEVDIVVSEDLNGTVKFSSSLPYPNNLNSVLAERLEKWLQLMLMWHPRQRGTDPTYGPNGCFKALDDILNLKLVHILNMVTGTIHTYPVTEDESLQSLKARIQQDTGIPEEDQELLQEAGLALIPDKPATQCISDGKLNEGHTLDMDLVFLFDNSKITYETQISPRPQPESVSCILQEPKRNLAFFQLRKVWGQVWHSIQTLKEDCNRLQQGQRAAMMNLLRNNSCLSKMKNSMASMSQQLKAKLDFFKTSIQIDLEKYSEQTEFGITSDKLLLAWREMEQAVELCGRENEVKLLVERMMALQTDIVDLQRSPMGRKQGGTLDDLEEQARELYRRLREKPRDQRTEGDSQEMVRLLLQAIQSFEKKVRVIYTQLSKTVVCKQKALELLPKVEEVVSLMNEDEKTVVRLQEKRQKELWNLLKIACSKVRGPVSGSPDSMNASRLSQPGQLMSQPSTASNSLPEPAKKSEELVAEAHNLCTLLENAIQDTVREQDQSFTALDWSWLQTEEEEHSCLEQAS
Text: as §1

[3] = biological target: 363 human kinases (including Aurora A/B/C) (Homo sapiens, UniProt P23443); conditions: p70S6K/RPS6KB1; for remaining activity at 0.1 µM: 100 nM; for remaining activity at 0.1 µM / remaining activity at 0.5 µM: read-out: % Enzyme Activity (relative to DMSO controls)
Sequence of 363 human kinases (including Aurora A/B/C) (Homo sapiens, UniProt P23443) (P23443 whole entry): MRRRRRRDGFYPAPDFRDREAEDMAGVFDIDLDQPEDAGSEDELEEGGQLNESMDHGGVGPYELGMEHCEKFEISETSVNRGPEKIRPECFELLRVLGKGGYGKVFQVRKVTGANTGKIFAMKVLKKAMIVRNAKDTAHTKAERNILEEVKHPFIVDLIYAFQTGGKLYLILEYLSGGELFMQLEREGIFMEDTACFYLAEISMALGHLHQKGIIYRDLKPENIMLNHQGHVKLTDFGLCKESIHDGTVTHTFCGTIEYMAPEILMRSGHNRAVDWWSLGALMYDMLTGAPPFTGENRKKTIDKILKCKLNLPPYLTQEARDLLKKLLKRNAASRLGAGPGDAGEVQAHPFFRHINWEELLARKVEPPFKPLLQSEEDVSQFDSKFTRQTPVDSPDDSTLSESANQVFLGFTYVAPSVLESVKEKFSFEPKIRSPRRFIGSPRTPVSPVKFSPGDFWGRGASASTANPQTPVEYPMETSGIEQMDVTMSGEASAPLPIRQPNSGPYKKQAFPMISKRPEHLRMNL
Text: as §1

[4] = biological target: 363 human kinases (including Aurora A/B/C) (Homo sapiens, UniProt P49840); conditions: GSK3a; for remaining activity at 0.1 µM: 100 nM; for remaining activity at 0.1 µM / remaining activity at 0.5 µM: read-out: % Enzyme Activity (relative to DMSO controls)
Sequence of 363 human kinases (including Aurora A/B/C) (Homo sapiens, UniProt P49840) (P49840 whole entry): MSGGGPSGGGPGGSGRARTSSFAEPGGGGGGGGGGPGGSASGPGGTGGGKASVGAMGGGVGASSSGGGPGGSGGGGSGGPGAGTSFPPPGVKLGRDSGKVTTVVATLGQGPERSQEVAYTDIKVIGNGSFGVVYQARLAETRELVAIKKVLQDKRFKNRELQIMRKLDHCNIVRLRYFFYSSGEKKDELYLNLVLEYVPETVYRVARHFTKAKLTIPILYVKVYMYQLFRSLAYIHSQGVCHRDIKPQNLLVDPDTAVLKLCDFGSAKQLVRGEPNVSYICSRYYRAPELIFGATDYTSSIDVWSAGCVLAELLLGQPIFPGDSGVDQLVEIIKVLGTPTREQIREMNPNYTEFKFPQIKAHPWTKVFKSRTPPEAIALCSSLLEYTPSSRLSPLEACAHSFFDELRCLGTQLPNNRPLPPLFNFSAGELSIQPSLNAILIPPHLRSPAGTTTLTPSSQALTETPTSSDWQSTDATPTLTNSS
Text: as §1

[5] = biological target: 363 human kinases (including Aurora A/B/C) (Homo sapiens, UniProt Q86UE8); conditions: TLK2; for remaining activity at 0.1 µM: 100 nM; for remaining activity at 0.1 µM / remaining activity at 0.5 µM: read-out: % Enzyme Activity (relative to DMSO controls)
Sequence of 363 human kinases (including Aurora A/B/C) (Homo sapiens, UniProt Q86UE8) (Q86UE8 whole entry): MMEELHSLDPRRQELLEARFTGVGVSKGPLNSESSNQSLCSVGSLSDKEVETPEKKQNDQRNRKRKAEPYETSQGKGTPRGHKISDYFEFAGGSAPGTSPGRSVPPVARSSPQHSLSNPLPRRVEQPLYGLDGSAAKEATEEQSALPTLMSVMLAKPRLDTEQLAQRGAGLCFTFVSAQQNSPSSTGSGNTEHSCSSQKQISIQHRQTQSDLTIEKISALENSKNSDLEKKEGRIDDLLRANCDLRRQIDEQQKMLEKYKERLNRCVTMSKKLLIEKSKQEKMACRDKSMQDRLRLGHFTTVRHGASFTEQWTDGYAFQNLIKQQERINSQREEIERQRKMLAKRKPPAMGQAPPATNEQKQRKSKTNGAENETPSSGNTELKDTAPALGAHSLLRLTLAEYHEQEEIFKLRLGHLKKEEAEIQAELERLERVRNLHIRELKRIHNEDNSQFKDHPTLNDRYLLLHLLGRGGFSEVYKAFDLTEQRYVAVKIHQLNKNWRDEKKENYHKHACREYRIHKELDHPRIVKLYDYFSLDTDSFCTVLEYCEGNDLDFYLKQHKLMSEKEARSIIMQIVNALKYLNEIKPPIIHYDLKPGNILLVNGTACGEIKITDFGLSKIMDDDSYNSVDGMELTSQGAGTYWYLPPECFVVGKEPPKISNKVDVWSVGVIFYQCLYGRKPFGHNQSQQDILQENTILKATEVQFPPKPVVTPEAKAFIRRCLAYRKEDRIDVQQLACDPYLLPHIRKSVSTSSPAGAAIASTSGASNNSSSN
Text: as §1

[6] = biological target: T2, 363 human kinases (including Aurora A/B/C) (Homo sapiens, UniProt Q8IVH8); conditions: GLK/MAP4K3; for remaining activity at 0.1 µM: 100 nM; for remaining activity at 0.1 µM / remaining activity at 0.5 µM: read-out: % Enzyme Activity (relative to DMSO controls)
T2 sequence (Q8IVH8 1-894): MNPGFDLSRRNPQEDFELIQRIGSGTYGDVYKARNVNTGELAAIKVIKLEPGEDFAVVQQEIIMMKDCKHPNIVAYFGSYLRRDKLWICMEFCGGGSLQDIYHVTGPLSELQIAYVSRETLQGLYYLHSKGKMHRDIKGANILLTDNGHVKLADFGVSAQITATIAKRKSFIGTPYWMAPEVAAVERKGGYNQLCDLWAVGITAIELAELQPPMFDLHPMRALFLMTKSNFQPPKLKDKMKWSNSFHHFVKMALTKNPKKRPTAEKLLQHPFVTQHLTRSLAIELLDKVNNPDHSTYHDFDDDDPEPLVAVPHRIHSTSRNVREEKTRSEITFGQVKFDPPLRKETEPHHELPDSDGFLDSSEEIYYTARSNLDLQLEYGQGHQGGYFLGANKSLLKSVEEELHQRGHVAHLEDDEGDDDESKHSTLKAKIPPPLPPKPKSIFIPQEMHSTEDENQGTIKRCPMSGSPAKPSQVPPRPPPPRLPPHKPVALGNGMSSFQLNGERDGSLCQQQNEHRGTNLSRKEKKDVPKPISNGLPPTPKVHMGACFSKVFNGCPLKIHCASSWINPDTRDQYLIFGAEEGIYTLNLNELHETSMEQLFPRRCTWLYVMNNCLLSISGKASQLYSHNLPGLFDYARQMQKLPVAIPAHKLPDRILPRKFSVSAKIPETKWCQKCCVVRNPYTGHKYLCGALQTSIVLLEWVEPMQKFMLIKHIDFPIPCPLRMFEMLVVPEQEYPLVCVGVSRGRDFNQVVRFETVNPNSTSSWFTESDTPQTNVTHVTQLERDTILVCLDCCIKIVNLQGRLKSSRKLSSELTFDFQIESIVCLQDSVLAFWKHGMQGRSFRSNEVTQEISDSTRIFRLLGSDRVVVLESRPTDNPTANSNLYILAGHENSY
Text: as §1

[7] = biological target: T3, 363 human kinases (including Aurora A/B/C) (Homo sapiens, UniProt Q9NWZ3); conditions: IRAK4; for remaining activity at 0.1 µM: 100 nM; for remaining activity at 0.1 µM / remaining activity at 0.5 µM: read-out: % Enzyme Activity (relative to DMSO controls)
T3 sequence (Q9NWZ3 1-460): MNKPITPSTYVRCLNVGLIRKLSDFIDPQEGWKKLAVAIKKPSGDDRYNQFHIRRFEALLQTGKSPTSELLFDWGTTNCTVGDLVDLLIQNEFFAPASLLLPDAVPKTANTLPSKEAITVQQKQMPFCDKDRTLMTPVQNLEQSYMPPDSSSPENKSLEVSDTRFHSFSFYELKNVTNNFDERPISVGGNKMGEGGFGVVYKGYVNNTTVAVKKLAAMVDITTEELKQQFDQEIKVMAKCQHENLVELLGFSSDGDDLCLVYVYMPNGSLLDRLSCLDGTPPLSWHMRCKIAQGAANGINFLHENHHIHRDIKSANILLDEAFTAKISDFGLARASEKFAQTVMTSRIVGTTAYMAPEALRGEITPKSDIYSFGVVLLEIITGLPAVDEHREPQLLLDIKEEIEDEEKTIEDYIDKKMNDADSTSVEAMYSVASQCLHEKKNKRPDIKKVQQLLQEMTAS
Text: as §1

[8] = biological target: 363 human kinases (including Aurora A/B/C) (Homo sapiens, UniProt Q9H3Y6); conditions: SRMS; for remaining activity at 0.1 µM: 100 nM; for remaining activity at 0.1 µM / remaining activity at 0.5 µM: read-out: % Enzyme Activity (relative to DMSO controls)
Sequence of 363 human kinases (including Aurora A/B/C) (Homo sapiens, UniProt Q9H3Y6) (Q9H3Y6 whole entry): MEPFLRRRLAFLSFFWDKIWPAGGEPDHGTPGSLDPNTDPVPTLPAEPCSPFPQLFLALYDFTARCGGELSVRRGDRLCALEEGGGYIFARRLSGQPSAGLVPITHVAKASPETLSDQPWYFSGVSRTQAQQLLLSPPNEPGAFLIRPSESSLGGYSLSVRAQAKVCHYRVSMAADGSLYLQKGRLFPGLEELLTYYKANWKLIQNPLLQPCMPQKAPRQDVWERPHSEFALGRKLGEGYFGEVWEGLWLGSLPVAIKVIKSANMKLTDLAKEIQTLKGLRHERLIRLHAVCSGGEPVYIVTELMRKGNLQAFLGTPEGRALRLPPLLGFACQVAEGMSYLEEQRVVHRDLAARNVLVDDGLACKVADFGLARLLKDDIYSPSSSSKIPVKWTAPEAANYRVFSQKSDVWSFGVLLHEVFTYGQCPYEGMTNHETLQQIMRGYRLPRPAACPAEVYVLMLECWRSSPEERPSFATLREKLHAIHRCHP
Text: as §1

[9] = biological target: 363 human kinases (including Aurora A/B/C) (Homo sapiens, UniProt Q86Y07); conditions: VRK2; for remaining activity at 0.1 µM: 100 nM; for remaining activity at 0.1 µM / remaining activity at 0.5 µM: read-out: % Enzyme Activity (relative to DMSO controls)
Sequence of 363 human kinases (including Aurora A/B/C) (Homo sapiens, UniProt Q86Y07) (Q86Y07 whole entry): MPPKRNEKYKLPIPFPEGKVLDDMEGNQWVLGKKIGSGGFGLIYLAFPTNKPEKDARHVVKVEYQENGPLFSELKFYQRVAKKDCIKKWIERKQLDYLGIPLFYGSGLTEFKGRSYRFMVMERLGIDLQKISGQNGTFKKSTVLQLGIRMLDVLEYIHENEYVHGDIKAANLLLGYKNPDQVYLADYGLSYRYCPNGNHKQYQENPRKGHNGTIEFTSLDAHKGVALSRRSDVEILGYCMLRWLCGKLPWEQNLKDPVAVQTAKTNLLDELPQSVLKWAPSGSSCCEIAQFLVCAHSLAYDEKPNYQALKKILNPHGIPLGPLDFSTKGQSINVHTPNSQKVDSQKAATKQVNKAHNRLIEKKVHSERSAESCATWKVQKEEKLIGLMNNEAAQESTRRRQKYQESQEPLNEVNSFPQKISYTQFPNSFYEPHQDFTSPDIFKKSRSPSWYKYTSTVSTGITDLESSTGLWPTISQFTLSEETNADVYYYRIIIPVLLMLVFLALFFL
Text: as §1

[10] = biological target: 363 human kinases (including Aurora A/B/C) (Homo sapiens, UniProt P41279); conditions: COT1/MAP3K8, [ATP] 50 µM; for remaining activity at 0.1 µM: 100 nM; for remaining activity at 0.1 µM / remaining activity at 0.5 µM: read-out: % Enzyme Activity (relative to DMSO controls)
Sequence of 363 human kinases (including Aurora A/B/C) (Homo sapiens, UniProt P41279) (P41279 whole entry): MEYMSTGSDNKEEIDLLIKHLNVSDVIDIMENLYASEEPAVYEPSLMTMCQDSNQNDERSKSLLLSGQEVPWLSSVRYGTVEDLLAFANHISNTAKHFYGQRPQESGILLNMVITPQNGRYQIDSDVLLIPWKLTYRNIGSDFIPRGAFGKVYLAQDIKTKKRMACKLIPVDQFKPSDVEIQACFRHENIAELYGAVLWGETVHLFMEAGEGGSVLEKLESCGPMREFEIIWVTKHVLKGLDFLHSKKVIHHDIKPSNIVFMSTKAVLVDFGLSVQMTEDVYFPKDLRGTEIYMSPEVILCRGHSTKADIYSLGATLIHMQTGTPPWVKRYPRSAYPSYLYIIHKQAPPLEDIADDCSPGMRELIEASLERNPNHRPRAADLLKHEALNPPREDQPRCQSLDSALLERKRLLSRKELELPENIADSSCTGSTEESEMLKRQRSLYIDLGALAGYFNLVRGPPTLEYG
Text: as §1

Sequence of 363 human kinases (including Aurora A/B/C) (Homo sapiens, UniProt Q16512) (Q16512 whole entry): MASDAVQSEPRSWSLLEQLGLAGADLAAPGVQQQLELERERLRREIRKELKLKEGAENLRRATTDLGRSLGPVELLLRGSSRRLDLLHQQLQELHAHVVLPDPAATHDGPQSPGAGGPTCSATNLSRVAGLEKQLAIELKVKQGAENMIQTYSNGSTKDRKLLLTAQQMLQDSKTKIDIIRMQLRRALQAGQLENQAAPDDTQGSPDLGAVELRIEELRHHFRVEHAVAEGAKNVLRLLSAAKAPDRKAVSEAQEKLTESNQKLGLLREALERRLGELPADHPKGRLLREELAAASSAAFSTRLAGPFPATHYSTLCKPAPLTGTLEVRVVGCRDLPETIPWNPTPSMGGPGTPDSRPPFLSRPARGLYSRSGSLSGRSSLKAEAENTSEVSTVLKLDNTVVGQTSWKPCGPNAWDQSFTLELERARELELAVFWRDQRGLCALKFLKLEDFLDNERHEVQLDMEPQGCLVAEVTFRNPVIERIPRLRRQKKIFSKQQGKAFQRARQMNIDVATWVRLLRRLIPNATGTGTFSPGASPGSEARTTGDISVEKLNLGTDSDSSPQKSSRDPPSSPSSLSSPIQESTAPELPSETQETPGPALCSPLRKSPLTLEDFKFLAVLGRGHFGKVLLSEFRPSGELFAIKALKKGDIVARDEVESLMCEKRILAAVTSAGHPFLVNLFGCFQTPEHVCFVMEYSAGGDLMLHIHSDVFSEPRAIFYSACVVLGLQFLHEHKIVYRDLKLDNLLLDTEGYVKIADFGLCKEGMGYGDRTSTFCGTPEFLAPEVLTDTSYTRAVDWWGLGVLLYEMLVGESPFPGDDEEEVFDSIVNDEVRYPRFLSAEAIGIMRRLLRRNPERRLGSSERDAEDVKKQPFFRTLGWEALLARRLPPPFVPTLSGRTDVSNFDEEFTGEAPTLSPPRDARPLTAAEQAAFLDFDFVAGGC

**Q.** `CCn1cc(-c2ccnc3[nH]c(-c4cccc(CN(C)C)c4)cc23)c(-c2ccc(NC(=O)N(C)C)cc2)n1` [GSK1070916] was tested. Which remaining activity at 0.1 µM [1] did it give?
**A.** Its remaining activity at 0.1 µM is 103%.

**Q.** What about the remaining activity at 0.1 µM [2] of the same molecule?
**A.** Its remaining activity at 0.1 µM is 126%.

**Q.** What about the remaining activity at 0.1 µM [3] of the same molecule?
**A.** Its remaining activity at 0.1 µM is 101%.

**Q.** And the remaining activity at 0.1 µM [4]?
**A.** Its remaining activity at 0.1 µM is 99%.

**Q.** And the remaining activity at 0.1 µM [5]?
**A.** The remaining activity at 0.1 µM was 100%.

**Q.** And the remaining activity at 0.1 µM [6]?
**A.** The remaining activity at 0.1 µM was 88.3%.

**Q.** What about the remaining activity at 0.1 µM [7] of the same molecule?
**A.** The remaining activity at 0.1 µM was 84.3%.

**Q.** What about the remaining activity at 0.1 µM [8] of the same molecule?
**A.** Its remaining activity at 0.1 µM is 95%.

**Q.** What about the remaining activity at 0.1 µM [9] of the same molecule?
**A.** The remaining activity at 0.1 µM was 106%.

**Q.** And the remaining activity at 0.1 µM [10]?
**A.** Its remaining activity at 0.1 µM is 87.8%.

**Q.** What does the source list for `O=C(O)[C@]1(Cc2cccc(Nc3nccs3)n2)CC[C@@H](Oc2cccc(Cl)c2F)CC1` [MK-5108]?
**A.** remaining activity at 0.1 µM [1]: 96%; remaining activity at 0.5 µM ([1]; 500 nM): 115%; remaining activity at 0.1 µM [2]: 103%; remaining activity at 0.5 µM ([2]; 500 nM): 128%; remaining activity at 0.1 µM [3]: 98.3%; remaining activity at 0.5 µM ([3]; 500 nM): 97.7%; remaining activity at 0.1 µM [4]: 32.5%; remaining activity at 0.5 µM ([4]; 500 nM): 24.7%; remaining activity at 0.1 µM [5]: 111%; remaining activity at 0.5 µM ([5]; 500 nM): 98.3%; remaining activity at 0.1 µM [6]: 103%; remaining activity at 0.5 µM ([6]; 500 nM): 82.7%; remaining activity at 0.1 µM [7]: 47.6%; remaining activity at 0.5 µM ([7]; 500 nM): 25.6%; remaining activity at 0.1 µM [8]: 95.1%; remaining activity at 0.5 µM ([8]; 500 nM): 94.8%; remaining activity at 0.1 µM [9]: 114%; remaining activity at 0.5 µM ([9]; 500 nM): 91.7%; remaining activity at 0.1 µM [10]: 101%; remaining activity at 0.5 µM ([10]; 500 nM): 91%

**Q.** Which results are given for `O=C(c1cccc(Cl)c1F)N1CCN(Cc2cccc(Nc3nccs3)n2)CC1` [MK-8745]?
**A.** % Enzyme Activity (relative to DMSO controls) ([1]; 500 nM): 94.45%; remaining activity at 0.5 µM ([1]; 500 nM): 96.7%; % Enzyme Activity (relative to DMSO controls) ([2]; 500 nM): 112.10%; remaining activity at 0.5 µM ([2]; 500 nM): 119%; % Enzyme Activity (relative to DMSO controls) ([3]; 500 nM): 99.31%; remaining activity at 0.5 µM ([3]; 500 nM): 100%; % Enzyme Activity (relative to DMSO controls) ([4]; 500 nM): 21.35%; remaining activity at 0.5 µM ([4]; 500 nM): 23%; % Enzyme Activity (relative to DMSO controls) ([5]; 500 nM): 99.16%; remaining activity at 0.5 µM ([5]; 500 nM): 100%; % Enzyme Activity (relative to DMSO controls) ([6]; 500 nM): 88.41%; remaining activity at 0.5 µM ([6]; 500 nM): 88.7%; % Enzyme Activity (relative to DMSO controls) ([7]; 500 nM): 79.25%; remaining activity at 0.5 µM ([7]; 500 nM): 79.4%; % Enzyme Activity (relative to DMSO controls) ([8]; 500 nM): 96.62%; remaining activity at 0.5 µM ([8]; 500 nM): 98.4%; % Enzyme Activity (relative to DMSO controls) ([9]; 500 nM): 103.85%; remaining activity at 0.5 µM ([9]; 500 nM): 107%; % Enzyme Activity (relative to DMSO controls) ([10]; 500 nM): 88.35%; remaining activity at 0.5 µM ([10]; 500 nM): 91.3%
